Publication PMC6054100, “Exploring the chemical space of the lysine-binding pocket of the first kringle domain of hepatocyte growth factor/scatter factor (HGF/SF) yields a new class of inhibitors of HGF/SF-MET binding” (Chemical Science, 2015)

How the values were obtained:
[1] = molecular target: T1, NK1 (Homo sapiens, UniProt P14210); assay: Binding of lysine analogues to NK1 (unpublished data); settings: A. G. S.
[2] = molecular target: T1, NK1; assay: SPR steady-state binding to immobilized NK1 (Biacore T100); set-up: made in house; host or cells: Pichia pastoris; settings: steady-state binding constants; piperazine-like compounds; immobilized NK1, PBS pH 7.4; read-out: KD in SPR
Method: Binding constants of piperazine-like compounds and fragments were determined using a Biacore T100 instrument. NK1 was immobilized on a CM5 chip by amine coupling to a density of 6000 RU. Compounds were stored as 100 mM stock solutions in water and serial dilutions were prepared in the running buffer (PBS pH 7.4, 0.05% Tween 20). The compound solutions were injected onto the surface of the chip at a flow rate of 30 μL min^–1, contact time was 1 min and dissociation time 1 min. Sensorgrams were analysed using the Biacore T100 evaluation software and the binding constants determined.

[3] = molecular target: T2, lysine-binding pocket of the kringle domain of NK1 (Homo sapiens, UniProt P14210); assay: Soaking into NK1 apo crystals, X-ray crystallography; settings: soaked into NK1 apo crystals
T2 construct: made in house; host or cells: Pichia pastoris
T2 sequence (P14210 32-210 isoform P14210-6 limits assumed): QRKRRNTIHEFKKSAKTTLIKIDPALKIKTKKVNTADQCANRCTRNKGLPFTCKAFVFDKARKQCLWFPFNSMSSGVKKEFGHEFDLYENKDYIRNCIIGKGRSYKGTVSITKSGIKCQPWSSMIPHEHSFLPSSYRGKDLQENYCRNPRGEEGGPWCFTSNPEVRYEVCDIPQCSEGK
Method: Next, three classes of piperazine-like sulphonated compounds containing piperazine ((H)EPPS and PIPES), morpholine (MES and MOPS), or cyclohexane (CHES and CAPS) rings were studied for their binding to NK1 (Table 1), alongside another five sulphonated compounds selected from a chemical fragment library (Table 2).
NK1 buffered in 150 mM NaCl, 50 mM Tris, pH 7.5 (apo-NK1 and all soaking experiments) was concentrated to ∼20 mg mL^–1 using a Vivaspin device with a 10 kDa cut-off membrane (Sartorius Biolab). Crystallisation was carried out in Linbro plates by the vapour diffusion hanging drop technique using a protein : precipitant ratio of 1 : 1 at 20 °C. Previously NK1 has been crystallised in 18% PEG 4000, 200 mM sodium acetate and 150 mM Tris pH 8.5 as precipitant.[19] Here final crystallisation conditions (19% PEG 4000, 200 mM sodium acetate and 150 mM Tris pH 7.5) were optimised around those to achieve high-resolution apo structure. Details of compound soaking, X-ray data collection and structure determination are given in the ESI ^† section of the manuscript. […]
For this, 1 M stock solutions were prepared in DMSO (fragments) or water (piperazine- like compounds) and the pH adjusted to a value within their buffering range with either HCl or NaOH. The seven piperazine- like compounds and their respective pH are: HEPES (pH 7.6), (H)EPPS (pH 7.4), PIPES (pH 7.0), MES (pH 5.8), MOPS (pH 7.2), CHES (pH 8.6) and CAPS (pH 9.7). Secondary stocks of the compounds at 50 mM were prepared in the […]
respective mother liquor and soaked for up to 48 hours.
MB605 was solubilised in 50% DMSO at 20 mM concentration (1% f inal DMSO concentration in the drop) in order to minimize adverse effects of DMSO on the protein crystal. 25% ethylene glycol was used as the cryoprotective agent.
X-ray data collection and processing
X-ray datasets were collected either at the European Synchrotron Radiation Facility (ESRF, Grenoble, France), the Diamond Light Source (DLS, Oxford, UK) or in-house using the X8 PROTEUM (Bruker AXS) at the Department of Biochemistry, University of Cambridge.
Datasets of at least 180° were collected. Raw data collected at synchrotrons were integrated, merged, scaled and reduced using DENZO and […].2 Raw data […]
collected in- house were integrated, merged, scaled and reduced using the PROTEUM 2 software package .3 The CCP4 suite of crystallographic programs (Collaborative

[4] = molecular target: T1, NK1; assay: 1H-15N TROSY-HSQC NMR chemical shift titration of 15N-labelled NK1; format: binding; set-up: made in house; host or cells: Pichia pastoris; settings: steady-state binding constants; piperazine-like compounds; 0.18 mM NK1, pH 7.2, 310 K; read-out: KD in NMR
Method: Ligand screening was performed by monitoring the chemical shift variations in ^1H-^15N TROSY-HSQC NMR spectra of the uniformly [^15N]-labelled NK1 protein (Fragai et al. 2015, in prep.) upon the addition of increasing concentrations of the investigated compounds.[43]–[45] The experiments were performed using 0.18 mM protein samples in 25 mM Tris, 100 mM NaCl and 0.01% sodium azide, at pH 7.2 with 10% D2O. The spectra were recorded at 310 K on a Bruker AVANCE 900 MHz spectrometer equipped with a TXI cryo-probe. Sample solutions were prepared from 1 M or 100 mM DMSO stock solutions of the ligands. The dissociation constant values (KD) were calculated by plotting the weighted average ^1H and ^15N chemical shifts of the residues experiencing significant variations as a function of ligand concentration added during the titration and considering the one site binding model.[46]

[5] = tested on: MET downstream signalling (Erk 1/2, Akt) in Vero cells; assay: MET, Erk1/2 and Akt phosphorylation assay in NK1-stimulated Vero cells (Western blot); format: cell-based; settings: Vero cells stimulated with NK1
Method: We evaluated the effect of piperazine-like compounds and MB605 on Vero cells by assessing MET, Erk 1/2 and Akt phosphorylation in response to stimulation using […] NK1. MB605 was dissolved in DMSO, which limited the range of concentrations tested to ≤1 mM in order to avoid solvent effects on cell function/viability. The water-soluble piperazine-like compounds, in contrast, could be tested at concentrations up to 100 mM.
Fig. 6 Biological activity of the piperazine-like compounds and MB605. (a–e) Vero cells expressing the receptor endogenously on their cell surface were stimulated with HGF/SF or NK1 and phosphorylation of MET and downstream targets Akt and Erk1/2 was analysed. Piperazine-like compounds HEPES (a), (H)EPPS (b), MES (c), MOPS (d) and CAPS (e) were tested at 100 mM (lanes 4), 10 mM (lanes 5), 1 mM (lanes 6) and 100 μM (lanes 7) concentration in the presence of 1 nM NK1. To control for activating or inhibiting effects of the compounds independently of MET, piperazine-like compounds were tested on cells at 100 mM without stimulation by NK1 (lanes 3). Biological activity of MB605 (f) was investigated at 1 mM (lane 5), 100 μM (lane 6) and 10 μM (lane 7) in the presence of a constant concentration of DMSO (0.1%). A solvent control (0.1% DMSO, lane 3) was included in order to account for the effect of DMSO on the cells. A positive control (1 nM NK1 in the presence of 0.1% DMSO) is shown in lane 4. In all experiments, un-stimulated cells served as negative control (lanes 1) while cells stimulated with 1 nM NK1 served as positive control (lanes 2).
The ability of MB605 and the piperazine-like compounds to inhibit MET, Erk and Akt phosphorylation in the presence of NK1 was tested using mammalian Vero cells as described by Ferraris et al.[47] and further details are given in the ESI ^† section of the manuscript. […]
For MET, Erk1/2 and Akt phosphorylation assays, Vero cells were seeded at 2.1 × 10^5 cells we ll -1 (2 ml we ll -1) in 6-well plates and grown to 90% conf luence in 10% FCS/DMEM media and then switched to serum-free medium (to avoid any growth f actors present in the serum).
24 hours post starvation the cells were stimulated for 5 min at 37°C with each individual piperazine -like compounds as well as with NK1 (1 nM) pre-incubated with different concentrations of the piperazine- like compounds (100 mM, 10 mM, 1 mM and 100 μM) or MB605 (1 mM, 100 μM and 10 μM). Stimulations with either 0. 1% DMS O or 1 nM of NK1 […]
solution were used as a negative and a positive control, respectively. The cells were then washed in PBS buffer, lysed on ice f or 30 min and frozen at -80 °C until further analysis. For

[6] = tested on: NK1-MET complexes; set-up: method as in Lauris Kemp, personal communication; settings: buffers containing 50 mM HEPES; ref Lauris Kemp, personal communication; cited from earlier work

T1 sequence (P14210 32-210 isoform P14210-6 limits assumed): as above

SMILES | binding to NK1 [1] | Kd [2] [mM] | binding in the lysine-binding pocket (crystal structure) [3] | Kd [4] [mM] | Inhibition of phosphorylation of Erk 1/2 and Akt (S473) ([5]; compound 10 mM (lane 5)) | Inhibition of phosphorylation of Erk 1/2 and Akt (S473) ([5]; compound 100 mM (lanes 4)) | formation of NK1-MET complexes [6]
NC[C@H]1CC[C@H](C(=O)O)CC1 [AMCHA, trans-4-(aminomethyl)cyclohexane-1-carboxylic acid] | neither EACA or AMCHA binds NK1 |  |  |  |  |  | 
O=S(=O)(O)CCCNC1CCCCC1 [CAPS] |  | 1.2 ± 0.2 | bind the lysine-binding pocket of NK1 | 1.4 ± 0.5 | active | Inhibition of phosphorylation | 
NCCCCCC(=O)O [EACA, ε-aminocaproic acid] | neither EACA or AMCHA binds NK1 |  |  |  |  |  | 
O=S(=O)(O)CCN1CCN(CCO)CC1 [HEPES, 4-(2-hydroxyethyl)-1-piperazineethanesulfonic acid] |  | 2.4 ± 0.4 | bound into the lysine-binding pocket | 3.3 ± 0.4 |  | Inhibition of phosphorylation | inhibited

Second part, led by results:

binding to NK1 [1] | Kd [2] [mM] | binding in the lysine-binding pocket (crystal structure) [3] | Kd [4] [mM] | SMILES | Inhibition of phosphorylation of Erk 1/2 and Akt (S473) ([5]; compound 10 mM (lane 5)) | Inhibition of phosphorylation of Erk 1/2 and Akt (S473) ([5]; compound 100 mM (lanes 4)) | formation of NK1-MET complexes [6]
 | 24.3 ± 3.1 | bind the lysine-binding pocket of NK1 | 13.4 ± 5.7 | O=S(=O)(O)CCN1CCOCC1 [MES] |  | Inhibition of phosphorylation | 
 | 7 ± 1 | bind the lysine-binding pocket of NK1 | 4.7 ± 1.7 | O=S(=O)(O)CCCN1CCOCC1 [MOPS] |  | Inhibition of phosphorylation | 
